From patent US8241607B2, “Use of fructose-based compounds for the diagnosis of cancer” (priority 2005, dated 2012)

Experiments:
Assay type in all cases: cell-based
MCF-7 cells = test: Breast cancer cell proliferation in fructose versus glucose (MTT assay); conditions: 5 mM fructose compared to 5 mM glucose, 8-72 h
Procedure: (§1) Estrogen receptor (ER) positive MCF-7, and ER negative MDA-MB231 cells were plated in 5 mM fructose or glucose for times between 8-72 h, and proliferative rates measured using MTT assay. *, p<0.05; **, p<0.01.
(§2) FIG. 5 depicts fructose-mediated increased breast cancer proliferation in accordance with an embodiment of the present invention. ER positive MCF-7, and ER negative MDA-MB231 cells were plated in a range of fructose or glucose concentrations (5-25 mM) for 72 h, after which proliferative rates were measured using an MTT assay. *, p<0.05 for concentrations between 5-25 mM fructose versus glucose.
(§3) Standard media for breast cancer cell culture contain either 5-7 mM (low) and 12-25 mM (high) glucose concentrations. Estrogen receptor (ER) positive MCF-7, and ER negative MDA-MB231 cells were cultured overnight in 2 mM glucose standard DMEM medium containing 10% fetal bovine serum prior to incubation for periods between 8, and 72 hours in standard DMEM medium containing 10% fetal bovine serum, and 5 mM glucose or 5 mM fructose.
(§4) Proliferative rates were then measured in replicate (minimum of 6) aliquot wells of the breast cancer cells grown in glucose, or fructose containing medium. […] In separate experiments, proliferative rates of the MCF-7, and MDA-MB231 breast cancer cells were compared following culture in a range of fructose, and glucose concentrations (2-25 mM) for 72 hours.

MDA-MB231 cells = test: as above; conditions: 5 mM fructose compared to 5 mM glucose, 8-72 h
Procedure: as §1, §2, §3, §4

[1] = test system: fructokinase-1 (FK-1) mRNA; test: RT-PCR of fructokinase-1 mRNA in MCF-7 cells; conditions: MCF-7 grown in 5 mM fructose vs 2 mM and 5 mM glucose
Procedure: FIG. 7 depicts fructokinase-1 expression in accordance with an embodiment of the present invention. Breast cancer cells (MCF-7) express Fructokinase-1 (FK-1). RT-PCR was used to measure fructokinase-1 (FK-1) mRNA levels in MCF-7 cells following growth in 2 mM glucose, 5.5 mM glucose, or 5.5 mM fructose for 24 h, and in two human breast cancers (BT 1 & 2), and matched adjacent normal breast tissue (NB 1 & 2) from the same individual. […] Human liver, and exclusion of template served as positive and negative controls.
The inventors used RT-PCR analysis and specific primer pairs (SEQ ID NO: 1 (3′[…]), SEQ ID NO: 2 (5′[…])) to examine fructokinase-1 (FK-1) mRNA levels in glucose- or fructose-treated breast cancer cells. […] Also examined were FK-1 mRNA levels in two surgically resected human breast cancers, and paired adjacent normal breast tissue from the same individual. FK-1 mRNA was detectable in both normal and tumor tissue.

GLUT-5 mRNA = test: Quantitative real-time RT-PCR of GLUT-5 mRNA in MCF-7 cells
Procedure: FIG. 10 depicts GLUT-5 expression levels in accordance with an embodiment of the present invention. MCF-7 breast cancer cells were incubated in 2 mM glucose (Glu), 5.5 mM glucose (Glu) or 5.5 mM fructose (Fru) for 4 or 24 hours, after which GLUT-5 expression was quantified using real-time RT-PCR, normalized to GAPDH levels, and expressed as fold-increase compared to GLUT-5 levels detected in MCF-7 cells cultured in 2 mM glucose for a similar time period.
Cellular fructose uptake is facilitated by a member of solute carrier family 2, called glucose transporter type 5 (GLUT-5). Following incubation of MCF-7 breast cancer cells in 2 mM, 5.5 mM glucose or 5.5 mM fructose for […], total RNA was harvested, and analyzed by quantitative real-time RT-PCR analysis using GLUT-5 specific primers to quantify GLUT-5 mRNA expression. GLUT-5 expression was normalized to GAPGH mRNA expression, and expressed as fold-change in comparison to control breast cancer cells incubated in 2 mM glucose for 4, and 24 hours.

AP1 = test: ELISA-based transbinding AP1 assay in MCF-7 cells; conditions: 5.5 mM sugar, 24 h
Procedure: FIG. 12 depicts an increase in AP1 activation in fructose-treated cells in accordance with an embodiment of the present invention. MCF-7 breast cancer cells were incubated in 2 mM glucose, or 5 mM glucose or fructose for 24 h, after which nuclear extracts were incubated with a biotinylated AP-1 probe in binding buffer. AP-1/AP1 probe complexes were next conjugated to a streptavidin-coated assay plate and detected using an AP-1 specific antibody, followed by binding of a horseradish-peroxidase conjugated secondary antibody, and detection by a colorimetric reagent. *, p<0.001.
Although several signal transduction pathways are likely involved in the fructose-mediated enhanced breast cancer growth and while not wishing to be bound by any particular theory, the inventors believe that the MAP-kinase pathway is involved. The inventors have used Western blot analysis to examine the MAPK pathway in breast cancer cells incubated in 2 mM glucose, 5.5 mM glucose, and 5.5 mM fructose for 48 hours. […] Activation of MEK, and subsequently ERK results in phosphorylation of p90^Rsk, which leads to transcriptional activation of CREB and AP1, which bind to cAMP or AP1 response elements respectively, activating gene transcription and promoting cellular growth.

MAPK pathway = test: Western blot of MAPK pathway in PANC-1 cells; conditions: 5.5 mM sugar, 48 h
Procedure: FIG. 23 depicts Western blot analysis examining MAPK pathway expression in accordance with an embodiment of the present invention. PANC-1 pancreatic cancer cells were incubated in 2 mM glucose, 5.5 mM glucose or 5.5 mM fructose for 48 hours, after which Western blot analysis on total protein lysates was employed to examine phosphorylated MEK (pMEK), pRSK, and pCREB, and corresponding total MEK, RSK, and CREB levels.
Several signal transduction pathways may be involved in fructose-mediated pancreatic cancer growth but given the importance of the MAPK pathway in proliferation, the inventors believed that MAPK was involved. In the MAPK pathway, MEK mediated phosphorylation of the p44/42 MAP kinase (ERK) is the first step in this cascade, which results in phosphorylation of p90^Rsk, leading to transcriptional activation of CREB, and AP1, activating gene transcription and promoting cellular growth. The inventors employed Western blot analysis to examine MAPK pathway expression in pancreatic cancer cells incubated in 2 mM glucose, 5.5 mM glucose, and 5.5 mM fructose for 48 hours. Levels of the active phosphorylated proteins, pERK, pRSK, and pMEK were normalized to total ERK, RSK, and MEK levels respectively, and compared between the fructose-, and glucose-treated PANC-1 cells.

## O=C(CO)[C@@H](O)[C@H](O)[C@H](O)CO [fructose]
MCF-7 cells
  proliferative rates: higher proliferative rates
MDA-MB231 cells
  proliferative rates: higher proliferative rates
[1]
  FK-1 mRNA levels: highest FK-1 levels
GLUT-5 mRNA; 5.5 mM fructose compared to 5.5 mM glucose, 24 hour incubation
  increase in GLUT-5 expression: two-fold increase
GLUT-5 mRNA; 5.5 mM glucose or 5 mM fructose, 4 hours, vs 2 mM glucose
  change in GLUT-5 mRNA expression: no significant change
AP1
  increase in AP1 activation: 3 fold
MAPK pathway
  pERK expression: highest
  pMEK expression: highest
  pRSK expression: highest
